According to patent US12465582B2, “(S)-2-amino-6-((3-aminopropyl)amino)hexanoic acid (APL) for use in the treatment of non-alcoholic steatohepatitis (NASH), liver inflammation, hepatocellular ballooning, liver fibrosis and steatosis” (Temple University—Of The Commonwealth System Of Higher …, priority 2020, dated 2025):

Tested on: C57BL/6J mice fed AMLN diet changed to HFD
Experiment: NAS and liver fibrosis in AMLN diet mouse model of NASH
Type: in vivo
Conditions: APL p.o. b.i.d., 16 weeks
Protocol: FIG. 12, comprising FIGS. 12A and 12B, depicts data regarding NAS and fibrosis in an AMLN diet mouse model of NASH. C57BL/6J mice were fed either CHOW or a modified AMLN diet that was changed to HFD after twenty (20) weeks. At seek fifty (50) mice were treated with vehicle or APL (p.o.b.i.d.). The APL dosage 25, 50, or 100 mg/kg, oral administration (p.o.) in two dosages per day (b.i.d.) (total dosage of 50, 100, or 200 mg/kg/day). After sixteen (16) weeks of treatment with vehicle or APL biopsies were collected and stained with hematoxylin & eosin (H&E) and evaluated for steatosis, inflammation, and hepatocyte ballooning. FIG. 12A depicts the reduction in NAS the treated group as compared to the positive control. […] FIG. 12B depicts the reduction in liver fibrosis in the treated group as compared to the positive control.
C57BL/6 mice were maintained in cages and had free access to standard rodent chow (Cat #5053, obtained from Labdiet, Saint Louis, MO) and water. C57BL/6J mice were fed either CHOW (negative control) or amylin liver NASH (AMLN) diet (58% high fat, 25% carbohydrate, 2% cholesterol) for twenty (20) weeks. Beginning at twenty (20) weeks, animals fed AMLN diet were changed to HFD. At fifty (50) weeks, animals were treated twice daily (b.i.d.) with oral administration (p.o.) of either vehicle (positive control) or APL (treated).

## NCCCNCCCC[C@H](N)C(=O)O [APL, (S)-2-amino-6-((3-aminopropyl)amino)hexanoic acid]
****p<0.0001
  liver fibrosis vs positive control (FIG. 12B): significant reduction
***p<0.001
  NAS vs positive control (FIG. 12A): significant reduction
